Patent publication US20100202971A1, “COMPOUND HAVING TUMOR-RESIDENT PROPERTY” (priority 2009, published 2010)

Columns and labels:
Type in all cases: in vivo, KSN nude mice
[1] = system: human esophageal squamous cell carcinoma cells TE-8; test: Biological distribution of biotinated αSQMG in tumor of tumor-bearing nude mice (TRITC-avidin staining of tumor segments); details: intravenous 40, 20 and 2 mg/kg, FIG. 1
Protocol: 1×10^6 of human esophageal squamous cell carcinoma cells TE-8 were transplanted into the right femoral region of 11 male KSN nude mice (Japan SLC, Inc.), and the mice were bred to form a tumor mass of about […] volume.
Thereafter, biotinated αSQMG C18:0 (formula XI) was dissolved in physiological saline solution, and 0.1 mL of the solution per administration was intravenously administered to each group comprising three mice so that the amount of the biotinated αSQMG C18:0 could be 40 mg/kg, 20 mg/kg, and 2 mg/kg. To two reference tumor bearing mice, physiological saline was administered. […]
In order to evaluate a tumor region which emits fluorescence due to TRITC, binarization imaging was performed with use of Photoshop. Thereafter, a portion (fraction) containing tumor tissues was selected from the visual field, and the number of pixels of a TRITC positive region (black color region) and the entire region were counted and the ratio of the positive region was calculated according to the formula:
The proportion (%) of biotinated αSQAP detected region=[the area of the black color region (region where the biotinated αSQMG was detected)]/[the area of the whole of the selected fraction]×100=[the number of pixels in the TRITC positive region]/[the number of pixels in the whole fraction]×100 (%) formula (A) […]

[2] = system: human colon carcinoma cells (SW480); test: Pharmacokinetics 1: concentration-time course in blood plasma, organs and tumor after intraperitoneal administration (LC/MS); details: 10 mg/kg intraperitoneal; for concentration in tumor tissues immediately after administration in comparison with other tissues / concentration in tumor tissues 24 hours after administration / residence in tumor tissues: SW480 tumor; for time of the highest concentration in blood plasma, liver, kidney, spleen and lung / time after administration at which concentration fell below the detection limit, blood plasma / time after administration at which concentration fell below the detection limit, kidney / time after administration at which concentration fell below the detection limit, liver / time after administration at which concentration fell below the detection limit, lung / time after administration at which concentration fell below the detection limit, spleen: SW480 tumor-bearing nude mice; for residence in tumor tissues: followed to 24 hours
Protocol: To eight-week-old male KSN nude mice (Japan SLC, Inc.), 2×10^6 of human colon carcinoma cells (SW480) were transplanted subcutaneously, two weeks later (body weight approximately 25 g, tumor volume approximately 200 mm^3) αSQMG C18:0 or αSQAP C18:0 was dissolved in physiological saline solution and administered intraperitoneally at a dose of 10 mg/kg (0.1 mL). After the administration, the mice were slaughtered chronologically with carbon dioxide; 30 minute, 1 hour, 2 hours, 4 hours, 12 hours, and 24 hours after the administration. Tissues of blood, liver, kidney, lung and spleen, and tumor tissue were then collected. At each time when tissues were collected, five animals were used.
Whole blood was collected from postcaval vein with use of an injection needle wetted with heparin sodium injection solution (10,000 unit/10 mL) to obtain blood plasma by 20 minutes of centrifugation at 6,000 g. To 90 μl of blood plasma, 5 μl of an internal standard compound (αSQMG C16:0), 5 μl of distilled water, and 4 μl of phosphoric acid were added, and denatured protein by adding 96 μl of acetonitrile. To 0.2 mL of the solution, 600 μl of 10 mM ammonium acetate solution was added, and stirred sufficiently to obtain supernatant by centrifugation at 16,000 g for 15 minutes. The supernatant was subjected to solid-phase extraction operation as described below. The solid-phase extraction was performed by washing with 1000 μl of 10 mM ammonium acetate aqueous solution and 200 μl of 10 mM ammonium acetate aqueous solution containing 10% acetonitrile, followed by elution of a test compound with 200 μl of 10 mM ammonium acetate aqueous solution containing 70% acetonitrile with use of Empore (trademark) disc cartridge (3M Company, product number 4115SD). The compound was used as a LC/MS analytical sample.
Each organ was extirpated after collection of blood and immediately frozen on dry ice. The frozen sample was subjected to frost shattering, and the weight was measured. Subsequently, ½-fold (weight ratio) internal standard compound (αSQMG C16:0) and distilled water were added, and 8-fold (weight ratio) extraction solution (2.5% NP-40, 2% phosphoric acid, 2 mM Eserine aqueous solution) was further added to the sample, followed by homogenization. The homogenized solution was subjected to protein denaturation with acetonitrile and solid phase extraction in the same manner as the above-mentioned treatment of blood plasma to obtain an analytical sample.
10 μl of the analytical sample was separated with a reverse phase HPLC system equipped with Capcell Pak MG column (particle diameter; 3 μm, column size; 2.1×50 mm, Shiseido Co., Ltd.). HPLC was performed with 68% acetonitrile and a single solvent of 10 mM ammonium acetate aqueous solution at a flow rate of 0.2 mL per minute. Mass spectrum was measured in a negative mode, and the peak area ratio of the internal standard compound was calculated by integration of the peak area from chromatogram corresponding to each ion by measuring a precursor ion; m/z=583.1, fragment ion; m/z=224.7 and m/z=298.8 for αSQMG C18:0, a precursor ion; m/z=567.1, fragment ion; m/z=224.7 and m/z=283.1 for αSQAP C18:0, and a precursor ion; m/z=555.1, fragment ion; m/z=224.7 and m/z=298.8 for a internal standard compound αSQMG C16:0. As a method of quantitative analysis, an internal standard analysis was adopted. More specifically, a standard curve was drawn based on the peak area ratio of the internal standard compound by analyzing the sample to which the test compound was added, to determine the quantity of the test compound.

[3] = system: human sophageal squamous cell carcinoma cells TE-8; test: Pharmacokinetics 2: concentration-time course in blood plasma, organs and tumor after intravenous administration (LC/MS); details: 1 mg/kg intravenous
Protocol: To eight-week-old male KSN nude mice (Japan SLC, Inc.), 2×10^6 of human colon carcinoma cells (SW480) were transplanted subcutaneously, two weeks later (body weight approximately 25 g, tumor volume approximately 200 mm^3) αSQMG C18:0 or αSQAP C18:0 was dissolved in physiological saline solution and administered intraperitoneally at a dose of 10 mg/kg (0.1 mL). After the administration, the mice were slaughtered chronologically with carbon dioxide; 30 minute, 1 hour, 2 hours, 4 hours, 12 hours, and 24 hours after the administration. Tissues of blood, liver, kidney, lung and spleen, and tumor tissue were then collected. At each time when tissues were collected, five animals were used. Whole blood was collected from postcaval vein with use of an injection needle wetted with heparin sodium injection solution (10,000 unit/10 mL) to obtain blood plasma by 20 minutes of centrifugation at 6,000 g. To 90 μl of blood plasma, 5 μl of an internal standard compound (αSQMG C16:0), 5 μl of distilled water, and 4 μl of phosphoric acid were added, and denatured protein by adding 96 μl of acetonitrile. To 0.2 mL of the solution, 600 μl of 10 mM ammonium acetate solution was added, and stirred sufficiently to obtain supernatant by centrifugation at 16,000 g for 15 minutes. The supernatant was subjected to solid-phase extraction operation as described below. The solid-phase extraction was performed by washing with 1000 μl of 10 mM ammonium acetate aqueous solution and 200 μl of 10 mM ammonium acetate aqueous solution containing 10% acetonitrile, followed by elution of a test compound with 200 μl of 10 mM ammonium acetate aqueous solution containing 70% acetonitrile with use of Empore (trademark) disc cartridge (3M Company, product number 4115SD). The compound was used as a LC/MS analytical sample. Each organ was extirpated after collection of blood and immediately frozen on dry ice. The frozen sample was subjected to frost shattering, and the weight was measured. Subsequently, ½-fold (weight ratio) internal standard compound (αSQMG C16:0) and distilled water were added, and 8-fold (weight ratio) extraction solution (2.5% NP-40, 2% phosphoric acid, 2 mM Eserine aqueous solution) was further added to the sample, followed by homogenization. The homogenized solution was subjected to protein denaturation with acetonitrile and solid phase extraction in the same manner as the above-mentioned treatment of blood plasma to obtain an analytical sample. 10 μl of the analytical sample was separated with a reverse phase HPLC system equipped with Capcell Pak MG column (particle diameter; 3 μm, column size; 2.1×50 mm, Shiseido Co., Ltd.). HPLC was performed with 68% acetonitrile and a single solvent of 10 mM ammonium acetate aqueous solution at a flow rate of 0.2 mL per minute. Mass spectrum was measured in a negative mode, and the peak area ratio of the internal standard compound was calculated by integration of the peak area from chromatogram corresponding to each ion by measuring a precursor ion; m/z=583.1, fragment ion; m/z=224.7 and m/z=298.8 for αSQMG C18:0, a precursor ion; m/z=567.1, fragment ion; m/z=224.7 and m/z=283.1 for αSQAP C18:0, and a precursor ion; m/z=555.1, fragment ion; m/z=224.7 and m/z=298.8 for a internal standard compound αSQMG C16:0. As a method of quantitative analysis, an internal standard analysis was adopted. More specifically, a standard curve was drawn based on the peak area ratio of the internal standard compound by analyzing the sample to which the test compound was added, to determine the quantity of the test compound. The pharmacokinetics of αSQAP C18:0 was tested by administering 1 mg/kg of αSQAP C18:0 to animals in the same manner as Example 3 except that human sophageal squamous cell carcinoma cells TE-8 were used as tumor of transplanted tumor model and that intravenous administration was adopted as substitute for interperitoneal administration.

| Compound | tumor-resident amount ([1]; 9 hours after administration) | staining of tumor tissues (TRITC positive region) ([1]; tumor extracted 9 hours after administration, TE-8 tumor) | concentration in tumor tissues immediately after administration in comparison with other tissues [2] | time of the highest concentration in blood plasma, liver, kidney, spleen and lung [2] | time after administration at which concentration fell below the detection limit, blood plasma [2] | time after administration at which concentration fell below the detection limit, kidney [2] | time after administration at which concentration fell below the detection limit, liver [2] | time after administration at which concentration fell below the detection limit, lung [2] | time after administration at which concentration fell below the detection limit, spleen [2] | concentration in tumor tissues 24 hours after administration [2] | residence in tumor tissues [2] | concentration in tumor tissue immediately after administration in comparison with other organs ([3]; TE-8 tumor) | time of the highest concentration in blood plasma, liver, spleen and lung ([3]; TE-8 tumor-bearing nude mice) | time after administration at which concentration fell below the detection limit, blood plasma ([3]; TE-8 tumor-bearing nude mice, blood plasma) | time after administration at which concentration fell below the detection limit, liver ([3]; TE-8 tumor-bearing nude mice, liver) | time after administration at which concentration fell below the detection limit, lung ([3]; TE-8 tumor-bearing nude mice, lung) | time after administration at which concentration fell below the detection limit, spleen ([3]; TE-8 tumor-bearing nude mice, spleen) [h] | concentration in tumor tissue after 24 hours ([3]; TE-8 tumor, 24 hours) | course of concentration in tumor tissue after two hours ([3]; TE-8 tumor, after two hours) | residence in tumor tissues ([3]; TE-8 tumor, followed to 24 hours) |
| --- | --- | --- | --- | --- | --- | --- | --- | --- | --- | --- | --- | --- | --- | --- | --- | --- | --- | --- | --- | --- |
| 3-O-[4-O-(biotinyl-β-alanyl)-6-sulfo-α-D-quinovopyranosyl]-1-0-stearoyl-glycerol [biotinated αSQMG C18:0] | high | strongly stained according to the dose |  |  |  |  |  |  |  |  |  |  |  |  |  |  |  |  |  |  |
| CCCCCCCCCCCCCCCCCC(=O)OCCCO[C@H]1O[C@H](CS(=O)(=O)[O-])[C@@H](O)[C@H](O)[C@H]1O.[Na+] [αSQAP C18:0] |  |  | low | immediately after the administration | four | four | 12 h | four | four | detectable | resides for a long period | low | immediately after administration | two | two | two | 24 | detectable | no decrease tendency | resides for a long period |
| CCCCCCCCCCCCCCCCCC(=O)OCC(O)CO[C@H]1O[C@H](CS(=O)(=O)[O-])[C@@H](O)[C@H](O)[C@H]1O.[Na+] (some centres unmarked) [αSQMG C18:0] |  |  | low | immediately after the administration | four | four | four | four | 12 h | detectable | resides for a long period |  |  |  |  |  |  |  |  |  |
